# Measured values: ChEMBL document CHEMBL1153524, “2009 Claude S. Hudson Award in Carbohydrate Chemistry. Carbohydrates: a frontier in medicinal chemistry” (2009)
# System: Plasmodium berghei
# Experiment: Antiplasmodial activity as survival against Plasmodium berghei ANKA infected mice (Mus musculus)
# Assay type: functional
structure (smiles),measurement,value
NCCOP(=O)(O)OC[C@H]1O[C@H](O[C@@H]2[C@@H](OC[C@H]3O[C@H](O[C@H]4[C@H](O)[C@@H](N)[C@@H](O[C@@H]5[C@@H](O)[C@H](O)[C@@H](O)[C@H]6OP(=O)(O)O[C@H]65)O[C@@H]4CO)[C@@H](O)[C@@H](O)[C@@H]3O)O[C@H](CO)[C@@H](O)[C@@H]2O)[C@@H](O[C@H]2O[C@H](CO)[C@@H](O)[C@H](O)[C@@H]2O)[C@@H](O)[C@@H]1O,Survival,75%
